The text below walks through data of ChEMBL document CHEMBL5620415, “Design, synthesis and anti-hepatic fibrosis activity of novel diphenyl vitamin D receptor agonists” (Eur J Med Chem, 2023).

Data set [1] deals with Mus musculus. Description: Anti-fibrotic effect in CCl4-induced hepatic fibrosis C57BL/6 mouse model assessed as inhibition of collagen deposition at 500 ug/kg, po five times a week for 2 weeks by Masson's Trichrome […] staining based assay. In kind it is functional, organism-based. Conditions: dose 500.0 µg/kg.
In data set [2] the test system is Mus musculus. Description: Anti-fibrotic effect in CCl4-induced hepatic fibrosis C57BL/6 mouse model assessed as decrease in inflammatory cell infiltration at 500 ug/kg, po five times a week for 2 weeks by Hematoxylin-Eosin (H&E) staining based assay. Type of data set: functional, organism-based. Conditions: dose 500.0 µg/kg.
Data set [3] has as its system Mus musculus. Description: Anti-fibrotic effect in improving CCl4-induced hepatic fibrosis C57BL/6 mouse model assessed as decrease in liver to kidney brightness ratio at 500 ug/kg, po five times a week for 2 weeks by qualitative ultrasound imaging analysis. Type of data set: functional, organism-based. To be noted: dose 500.0 µg/kg.
Data set [4] relates to Mus musculus. Put plainly: Anti-fibrotic effect in CCl4-induced hepatic fibrosis C57BL/6 mouse model assessed as inhibition of collagen deposition at 500 ug/kg, po five times a week for 2 weeks by Hematoxylin-Eosin (H&E) staining based assay. In kind it is functional, organism-based. To be noted: dose 500.0 µg/kg.
Data set [5] concerns Mus musculus. Put plainly: Anti-fibrotic effect in CCl4-induced hepatic fibrosis C57BL/6 mouse model assessed as reduction the lesions at 500 ug/kg, po five times a week for 2 weeks by Masson's Trichrome staining based assay. Type of data set: functional, organism-based. To be noted: dose 500.0 µg/kg.
In data set [6] the test system is Mus musculus. Description: Anti-fibrotic effect in CCl4-induced hepatic fibrosis C57BL/6 mouse model assessed as reduction the lesions at 500 ug/kg, po five times a week for 2 weeks by Hematoxylin-Eosin (H&E) staining based assay. Conditions: dose 500.0 µg/kg. In kind it is functional, organism-based.
For data set [7], the system named is Mus musculus. Description: Anti-fibrotic effect in CCl4-induced hepatic fibrosis C57BL/6 mouse model assessed as inhibition of proliferation of fibrous tissue at 500 ug/kg, po five times a week for 2 weeks by Masson's Trichrome […] staining based assay. In kind it is functional, organism-based. Conditions: dose 500.0 µg/kg.
Data set [8] has as its system Mus musculus. Description: Anti-fibrotic effect in CCl4-induced hepatic fibrosis C57BL/6 mouse model assessed as reduction in hepatic fibrosis lesions at 500 ug/kg, po five times a week for 2 weeks by Masson's Trichrome staining based assay. Type of data set: functional, organism-based. Conditions: dose 500.0 µg/kg.
The subject of data set [9] is Mus musculus. Description: Anti-fibrotic effect in CCl4-induced hepatic fibrosis C57BL/6 mouse model assessed as reduction in hepatic fibrosis lesions at 500 ug/kg, po five times a week for 2 weeks by Hematoxylin-Eosin (H&E) staining based assay. In kind it is functional, organism-based. To be noted: dose 500.0 µg/kg.
The test system of data set [10] is Mus musculus. Description: Anti-fibrotic effect in CCl4-induced hepatic fibrosis C57BL/6 mouse model assessed as decrease in inflammatory cell infiltration at 500 ug/kg, po five times a week for 2 weeks by Masson's Trichrome staining based assay. In kind it is functional, organism-based. Conditions: dose 500.0 µg/kg.
Data set [11] concerns Mus musculus. Put plainly: Anti-fibrotic effect in CCl4-induced hepatic fibrosis C57BL/6 mouse model assessed as inhibition of proliferation of fibrous tissue at 500 ug/kg, po five times a week for 2 weeks by Hematoxylin-Eosin (H&E) staining based assay. Type of data set: functional, organism-based. Conditions: dose 500.0 µg/kg.
Data set [12] deals with Mus musculus. Description: Anti-fibrotic effect in improving CCl4-induced hepatic fibrosis C57BL/6 mouse model assessed as uniform liver parenchyma at 500 ug/kg, po five times a week for 2 weeks by qualitative ultrasound imaging analysis. In kind it is functional, organism-based. To be noted: dose 500.0 µg/kg.
Data set [13] concerns Mus musculus. Description: Anti-fibrotic effect in CCl4-induced hepatic fibrosis C57BL/6 mouse model assessed as inhibition of serum AST level at 500 ug/kg, po five times a week for 2 weeks. Type of data set: functional, organism-based. To be noted: dose 500.0 µg/kg.
For data set [14], the target named is T1, Vitamin D3 receptor (Homo sapiens) (UniProt P11473).
T1 sequence (whole entry): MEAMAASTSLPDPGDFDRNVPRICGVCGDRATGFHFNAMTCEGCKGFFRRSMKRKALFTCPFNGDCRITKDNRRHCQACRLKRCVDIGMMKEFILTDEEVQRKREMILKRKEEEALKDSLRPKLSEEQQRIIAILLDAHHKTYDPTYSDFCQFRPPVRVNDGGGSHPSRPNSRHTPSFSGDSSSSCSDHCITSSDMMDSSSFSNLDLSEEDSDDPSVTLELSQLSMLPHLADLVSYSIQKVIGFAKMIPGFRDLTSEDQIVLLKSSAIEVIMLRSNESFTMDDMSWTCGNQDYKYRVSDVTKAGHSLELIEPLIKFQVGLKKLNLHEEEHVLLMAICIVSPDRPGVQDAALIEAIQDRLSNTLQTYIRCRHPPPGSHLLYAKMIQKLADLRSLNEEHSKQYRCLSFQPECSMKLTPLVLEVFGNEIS
Put plainly: Binding affinity to human full-length Vitamin D receptor assessed as relative binding affinity at 1 uM incubated for 2 hrs by fluorescence polarization based competitive binding assay relative to calcipotriol. Conditions: filed as agonist. (Polarisation of emitted light reports the rotation of a fluorescent probe.)

The target in data set [15] is T1, Vitamin D3 receptor (Homo sapiens). Description: Agonist activity at Vitamin D receptor in HEK293 cells assessed as receptor transactivation incubated for 48 hrs by dual-luciferase reporter assay. In kind it is cell-based. To be noted: filed as agonist, dose 0.01-1 µM. In general terms: A reporter such as luciferase makes a cellular process visible.
The subject of data set [16] is LX-2. Put plainly: Inhibition of TGF-beta1 induced human LX-2 cell activation assessed as inhibition of collagen I expression at 0.5 uM by Western blot analysis relative to control. In kind it is functional, cell-based.
For data set [17], the target named is T1, Vitamin D3 receptor (Homo sapiens). Description: Agonist activity at Vitamin D receptor in human LX-2 cells assessed as transcriptional activity by measuring induction of CYP24A expression at 0.5 uM by RT-qPCR analysis relative to control. In kind it is cell-based. To be noted: filed as agonist. (In general: Quantitative PCR measures a nucleic acid by following its amplification.)

For data set [18], the system named is Mus musculus. Put plainly: Anti-fibrotic effect in CCl4-induced hepatic fibrosis C57BL/6 mouse model assessed as inhibition of serum total bile acid (TBA) level at 500 ug/kg, po five times a week for 2 weeks. In kind it is functional, organism-based. To be noted: dose 500.0 µg/kg.
Data set [19] has as its system LX-2. Put plainly: Inhibition of TGF-beta1 induced human LX-2 cell activation assessed as inhibition of alpha-SMA expression at 0.5 uM by Western blot analysis relative to control. In kind it is functional, cell-based.
The test system of data set [20] is Mus musculus. Description: Anti-fibrotic effect in CCl4-induced hepatic fibrosis C57BL/6 mouse model assessed as inhibition of serum ALT level at 500 ug/kg, po five times a week for 2 weeks. In kind it is functional, organism-based. To be noted: dose 500.0 µg/kg.
Data set [21] is described as follows: Cytotoxicity against human LX-2 cells by CCK-8 assay. Type of data set: toxicity, cell-based.
Data set [22] in a line: Toxicity in CCl4-induced hepatic fibrosis C57BL/6 mouse model assessed as serum hypercalcemia at 100 ug/kg, po five times a week for 2 weeks by calcium assay kit. Type of data set: organism-based. Conditions: in vivo, 0.1 mg/kg, 336 h, dose 100 µg/kg.

The structures appear in SMILES notation. The source made the active and inactive calls. The rule behind the calls is not given here.

The IC50 is the concentration at which inhibition is half-maximal. Read a low IC50 as higher potency.

As to `CCn1c(C(=O)N[C@@H](C)CO)ccc1C(CC)(CC)c1ccc(OCC(O)C(C)(C)C)c(C)c1` (stereo partly drawn), the outcome in the data set on Mus musculus [1], with Mus musculus [2], in the data set on Mus musculus [3], in the data set with Mus musculus [4], with Mus musculus [5] and in the data set with Mus musculus [6] was Active. The outcome in the data set with Mus musculus [7], with Mus musculus [8], with Mus musculus [9], with Mus musculus [10], with Mus musculus [11] and with Mus musculus [12] was Active.
`CCC(Oc1ccc(CO)c(CO)c1)c1cccc(OCCCC(O)(CC)CC)c1` (stereo not drawn): the outcome in the data set on Mus musculus [1], in the data set with Mus musculus [13], in the data set with Mus musculus [2], in the data set on Mus musculus [3], in the data set with Mus musculus [4] and in the data set on Mus musculus [5] was Active. For the same compound, the result (with Mus musculus [6]; in the data set with Mus musculus [7]; in the data set on Mus musculus [8]; in the data set on Mus musculus [9]; in data set [17]; in the data set on Mus musculus [10]) was Active. Further, the outcome with Mus musculus [18], in the data set on Mus musculus [20], in the data set with Mus musculus [11] and in the data set on Mus musculus [12] was Active. Moreover, the RBA in [14] is 54.3%. Moreover, the Activity result in [15] was “Dose-Dependent Effect”. Moreover, the inhibition result with LX-2 [16] and with LX-2 [19] was “Active” each time. The compound further had an IC50 in [21] greater than 30 µM.
As to `CCC(O)(CC)CCCOc1cccc(/C=C/c2ccc(CO)c(CO)c2)c1`, the result in the data set with Mus musculus [1], with Mus musculus [13], in the data set on Mus musculus [2], with Mus musculus [3], in the data set on Mus musculus [4] and in the data set with Mus musculus [5] was Active. Moreover, the outcome (in the data set on Mus musculus [6]; in the data set with Mus musculus [7]; in the data set on Mus musculus [8]; in the data set on Mus musculus [9]; in data set [17]; in the data set with Mus musculus [10]) was Active. Besides, the outcome with Mus musculus [18], with Mus musculus [20], in the data set on Mus musculus [11] and in the data set with Mus musculus [12] was Active. Also, the RBA in data set [14] was found to be 48%. In [15], the Activity result is “Dose-Dependent Effect”. Moreover, the IC50 in [21] was greater than 30 µM.
With `C=C1/C(=C\C=C2/CCC[C@]3(C)[C@@H]([C@H](C)/C=C/[C@@H](O)C4CC4)CC[C@@H]23)C[C@@H](O)C[C@@H]1O` [CALCIPOTRIENE], the Activity result in [22] is recorded as “Non-Toxic”.
